Laboratory results published in US11992497B2 (priority 2021, dated 2024).
Like-named read-outs stand apart in the source and are kept apart here.

Key:
HCT15 = assay: GI50 by MTS assay; format: cell-based; details: Homo sapiens, HCT-15
Experimental: (§1) For MTS assay, the compounds have been tested at 8 concentrations on 4 colon cancer cell lines for 48 hours. The compounds, concentrations and colon cancer cell line panel tested are the following: • CBG: 0 μM, 1.25 μM, 2.5 μM, 5 μM, 10 μM, 20 μM, 40 μM, and 80 μM. • Compound 1: 0 μM, 1.25 μM, 2.5 μM, 5 μM, 10 μM, 20 μM, 40 μM, and 80 μM. • Compound 2: 0 μM, 1.25 μM, 2.5 μM, 5 μM, 10 μM, 20 μM, 40 μM, and 80 μM. • Colon cancer cell line panel: SW620, HCT15, HT29, HCTl16
(§2) Four colon cancer cell lines of SW620, HCT15, HT29, and HCT116 were included in the colon cancer cell line panel.
(§3) CBG, compound 1 and compound 2 were dissolved in DMSO at a concentration of 10 mM and stored at −20° C.
(§4) Evaluation of DM compounds treatment-induced growth inhibition was performed to determine the GI50 of four colon cancer cell lines with MTS assay or clonogenic assay. Each experiment was repeated in triplicate. In GraphPad Prism, data were log-transformed and fit with a nonlinear curve to calculate the GI50.
(§5) MTS assay. cells were plated at 96 well plates at a density of 1,000 cells per well. After 24 hours, cells were treated with DM compounds at increasing concentrations or DMSO vehicle and incubated for 48 hours. 20 μl of MTS reagent (Promega) was then added and incubated for 2 hours. The absorbance was measured with a microplate reader at 490 nm. Each experiment was repeated in triplicate. In GraphPad Prism, data were log-transformed and fit with a nonlinear curve to calculate the GI50.

HT29 = assay: GI50 by MTS assay; format: cell-based; details: Homo sapiens, HT-29
Experimental: as §1, §2, §3, §4, §5

SW620 = assay: GI50 by MTS assay; format: cell-based; details: Homo sapiens, SW-620
Experimental: as §1, §2, §3, §4, §5

UGT1A1 = molecular target: T1, UGT1A1 (Homo sapiens, UniProt P22309); assay: UGT reaction phenotyping, recombinant Supersomes; details: recombinant enzyme, pH 7.4
T1 sequence (P22309 26-533): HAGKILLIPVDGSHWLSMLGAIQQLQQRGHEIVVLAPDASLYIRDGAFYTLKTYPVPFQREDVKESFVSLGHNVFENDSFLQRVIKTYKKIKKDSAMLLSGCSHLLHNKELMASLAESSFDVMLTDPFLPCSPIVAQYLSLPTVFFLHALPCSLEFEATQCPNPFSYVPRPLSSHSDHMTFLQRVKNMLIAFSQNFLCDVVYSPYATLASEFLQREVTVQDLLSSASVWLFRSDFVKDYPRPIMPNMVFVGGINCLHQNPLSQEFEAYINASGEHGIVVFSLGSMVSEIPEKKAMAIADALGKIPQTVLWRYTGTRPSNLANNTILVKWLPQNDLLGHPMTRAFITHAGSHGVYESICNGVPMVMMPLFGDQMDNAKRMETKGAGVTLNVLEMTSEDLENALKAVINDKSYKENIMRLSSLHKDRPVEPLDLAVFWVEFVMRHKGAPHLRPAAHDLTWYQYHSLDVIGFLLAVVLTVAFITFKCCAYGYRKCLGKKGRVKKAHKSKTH
Experimental: (§6) Experimental Summary: UGT Reaction Phenotyping (7 Isoforms).
(§7) Experimental Procedure: cDNA expressed human UGT enzyme preparations (Supersomes) supplied by BD Biosciences were obtained and stored at −80° C. prior to use. The specific isoforms were chosen by the performing laboratory based on published guidelines. They are considered the clinically relevant of the UGT isoforms (E. Kasteel et al. Human variability in isoform-specific UDP-glucuronosyltransferases: markers of acute and chronic exposure, polymorphisms and uncertainty factors. Arch Toxicol. 2020; 94(8): 2637-2661)
(§8) Supersomes in 0.1 M Tris buffer pH 7.4, alamethicin (44.6 μg/mL) and test compound (final concentration of 5 μM; final DMSO concentration ≤0.1%) were pre-incubated at 37° C. prior to the addition of UDGPA (final concentration 2 mM) to initiate the reaction. Incubations were also performed using control Supersomes (no UGT enzymes present) to reveal any non-enzymatic degradation. Compounds known to be metabolized specifically by each UGT isoform were used as control compounds (7-hydroxy-4-trifluoromethylcoumarin, all but UGT1A4, or trifluoperazine for UGT1A4).
(§9) CBG or Compound 1 were incubated in duplicate for 0, 10, 20, 40 and 60 min with each isoform. The reactions were stopped by the addition of methanol containing an analytical internal standard at the time points specified in the table above. Stopped reactions were kept on ice for at least ten minutes and the samples were centrifuged to remove precipitated protein. Supernatants were analyzed by LC-MS/MS methodology developed by the performing laboratory to quantitate the parent remaining.
(§10) The change in CBG concentration were used to calculate the Half life (t1/2 in min) and the intrinsic clearance ([…]) as shown in the following table (S. C, Khojasteh et.al., Drug Metabolism and Pharmacokinetics Quick Guide, Springer, NY, 2011), Intrinsic Clearance (CIint) is a measure of the ability of hepatocytes to eliminate drug irrespective other factors such as blood flow or protein binding. The calculations were the same as those used in Example 3A.

UGT1A9 = molecular target: T2, UGT1A9 (Homo sapiens, UniProt O60656); assay: UGT reaction phenotyping, recombinant Supersomes; details: pH 7.4; for half-life at 1 µM / microsomal CLint at 1 µM: recombinant enzyme
T2 sequence (O60656 26-530): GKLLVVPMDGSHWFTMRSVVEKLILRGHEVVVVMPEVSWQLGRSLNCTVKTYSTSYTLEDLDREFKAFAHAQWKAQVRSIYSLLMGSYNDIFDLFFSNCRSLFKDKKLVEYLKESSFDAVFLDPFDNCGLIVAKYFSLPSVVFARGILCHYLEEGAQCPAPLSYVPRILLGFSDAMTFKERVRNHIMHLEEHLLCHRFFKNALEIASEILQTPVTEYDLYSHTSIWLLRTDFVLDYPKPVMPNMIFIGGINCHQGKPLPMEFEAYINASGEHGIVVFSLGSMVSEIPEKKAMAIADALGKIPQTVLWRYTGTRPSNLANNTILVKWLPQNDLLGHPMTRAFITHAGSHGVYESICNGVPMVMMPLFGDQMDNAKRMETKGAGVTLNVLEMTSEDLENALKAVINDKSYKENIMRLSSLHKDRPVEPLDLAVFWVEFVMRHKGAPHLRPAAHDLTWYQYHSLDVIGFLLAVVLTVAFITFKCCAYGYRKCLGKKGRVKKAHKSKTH
Experimental: as §6, §7, §8, §9, §10

[1] = HCT15 cells, 48 hours, read-out: GI50 (MTS assay)
[2] = MTS assay, HCT15, 48 hours, average of N1-N3, read-out: GI50 AVG
[3] = MTS assay, HCT15, 48 hours, replicate N1, read-out: GI50 N1
[4] = MTS assay, HCT15, 48 hours, replicate N2, read-out: GI50 N2
[5] = MTS assay, HCT15, 48 hours, replicate N3, read-out: GI50 N3
[6] = HT29 cells, 48 hours, read-out: GI50 (MTS assay)
[7] = MTS assay, HT29, 48 hours, replicate N1, read-out: GI50 N1
[8] = MTS assay, HT29, 48 hours, replicate N2, read-out: GI50 N2
[9] = MTS assay, HT29, 48 hours, replicate N3, read-out: GI50 N3
[10] = MTS assay, SW620, 48 hours, replicate N1, read-out: GI50 N1
[11] = MTS assay, SW620, 48 hours, replicate N2, read-out: GI50 N2
[12] = MTS assay, SW620, 48 hours, replicate N3, read-out: GI50 N3
[13] = SW620 cells, 48 hours, read-out: GI50 (MTS assay)
[14] = MTS assay, HT29, 48 hours, average of N1-N3, read-out: GI50 AVG
[15] = MTS assay, SW620, 48 hours, average of N1-N3, read-out: GI50 AVG

CCCCCc1cc(OC)c(C/C=C(\C)CCC=C(C)C)c(OC)c1 [Compound 2, (E)-2-(3,7-dimethylocta-2,6-dien-1-yl)-1,3-dimethoxy-5-pentylbenzene]
GI50 (HCT15; [1]): > 80 µM
GI50 (HCT15; [2]): 35.9 µM
GI50 (HCT15; [3]): > 80 µM
GI50 (HCT15; [4]): > 80 µM
GI50 (HCT15; [5]): > 80 µM
GI50 (HT29; [6]): > 80 µM
GI50 (HT29; [7]): > 80 µM
GI50 (HT29; [8]): > 80 µM
GI50 (HT29; [9]): > 80 µM
GI50 (SW620; [10]): > 80 µM
GI50 (SW620; [11]): > 80 µM
GI50 (SW620; [12]): > 80 µM
GI50 (SW620; [13]): > 80 µM

CCCCCc1cc(O)c(C/C=C(\C)CCC=C(C)C)c(OC)c1 [Compound 1, (E)-2-(3,7-dimethylocta-2,6-dien-1-yl)-3-methoxy-5-pentylphenol]
half-life at 1 µM (UGT1A1): 103 min
microsomal CLint at 1 µM (UGT1A1): 13.5 µL/min/mg
half-life at 1 µM (UGT1A9): 14 min
microsomal CLint at 1 µM (UGT1A9): 99.1 µL/min/mg
GI50 (HCT15; [1]): 10 ± 0.52 µM
GI50 (HCT15; [2]): 10 µM
GI50 (HCT15; [3]): 10.1 µM
GI50 (HCT15; [4]): 9.46 µM
GI50 (HCT15; [5]): 10.5 µM
GI50 (HT29; [6]): 10.2 ± 0.4 µM
GI50 (HT29; [14]): 10.2 µM
GI50 (HT29; [7]): 9.84 µM
GI50 (HT29; [8]): 10.1 µM
GI50 (HT29; [9]): 10.6 µM
GI50 (SW620; [15]): 8.76 µM
GI50 (SW620; [10]): 8.47 µM
GI50 (SW620; [11]): 7.55 µM
GI50 (SW620; [12]): 10.3 µM
GI50 (SW620; [13]): 8.76 ± 1.38 µM

CCCCCc1cc(O)c(C/C=C(\C)CCC=C(C)C)c(O)c1 [CBG, cannabigerol]
half-life at 1 µM (UGT1A1): 77.1 min
microsomal CLint at 1 µM (UGT1A1): 18 µL/min/mg
share of UGT1A9 in the activity with CBG for all the UGTs combined (UGT1A9; 5 µM): ~80%
half-life at 1 µM (UGT1A9): 1.92 min
microsomal CLint at 1 µM (UGT1A9): 721 µL/min/mg
GI50 (HCT15; [1]): 43.6 ± 5.74 µM
GI50 (HCT15; [2]): 43.6 µM
GI50 (HCT15; [3]): 50.2 µM
GI50 (HCT15; [4]): 30.2 µM
GI50 (HCT15; [5]): 40.7 µM
GI50 (HT29; [6]): 43.6 ± 4.02 µM
GI50 (HT29; [14]): 43.6 µM
GI50 (HT29; [7]): 42.6 µM
GI50 (HT29; [8]): 48 µM
GI50 (HT29; [9]): 40.1 µM
GI50 (SW620; [15]): 39 µM
GI50 (SW620; [10]): 39.5 µM
GI50 (SW620; [11]): 39.4 µM
GI50 (SW620; [12]): 38 µM
GI50 (SW620; [13]): 40 ± 0.84 µM

O=c1cc(C(F)(F)F)c2ccc(O)cc2o1 [7-OH4trifluoromethylcoumarin, 7-hydroxy-4-trifluoromethylcoumarin]
half-life at 1 µM (UGT1A1): 33.1 min
microsomal CLint at 1 µM (UGT1A1): 41.8 µL/min/mg
half-life at 1 µM (UGT1A9): 3.04 min
microsomal CLint at 1 µM (UGT1A9): 456 µL/min/mg
